pIC50: −log10 of the molar value. Converted amounts (≈) assume the structure as drawn. Like-named read-outs stand apart in the source and are kept apart here.
Columns and labels:
[1] = Pharmacokinetic study in rat, intravenous 1 mg/kg; type: in vivo
Experimental: (§1) Each mice PK study consisted of nine male C57BL/6 mice per group with sparse sampling design (n=3 mice per time point). The animals from intravenous groups were dosed with solution formulation of compounds via tail vein at 1 mg/kg dose. Ten compounds were screened in mice and one compound (the compound of Formula IV) was dosed in rat (n=3; serial sampling) following intravenous dose administration at 1 mg/kg dose. The solution formulation for compounds was prepared in 5% v/v DMA, 25% v/v PEG-400, and 70% v/v HPBCD (30% w/v); 15% v/v DMA, 5% Solutol HS-15, and 80% 1:1 PEG-300: Normal saline (2.25%); or 10% v/v DMA, 25% PEG-400, and 65% HPBCD (30% w/v solution). The dosing volume was 1 and 5 mL/kg for intravenous dose in rat and mice respectively. Blood samples (approximately 60 μL from mice and 120 μL from rats) were collected under light isoflurane anesthesia from a set of three mice at 0, 0.08, 0.25, 0.5, 1, 2, 4, 8, 12, and 24 hours post-dose. Plasma was harvested by centrifugation of blood and stored at −70±10° C. until analysis. Fit-for purpose LC-MS/MS method was developed and samples were processed by protein precipitation method. Non-Compartmental-Analysis tool of Phoenix WinNonlinR (Version 8.0) was used to assess the pharmacokinetic parameters. The areas under the concentration time curve (AUClast and AUCinf) were calculated by linear trapezoidal rule. The terminal elimination rate constant, Ke was determined by regression analysis of the linear terminal portion of the log plasma concentration-time curve. The terminal half-life (T1/2) was estimated at 0.693/ke. CLIV=Dose/AUCinf; Vss=MRT×CLIV.

[2] = Compound stability in mouse liver microsomes; type: in vitro ADME; settings: 37° C.
Experimental: A microsomal mixture comprising mouse liver microsomes and a potassium phosphate buffer was prepared at a concentration of 1.428 mg/mL in 2 mL tubes. 1.6 μL of test compound or imipramine as a positive control was added to the mixture, and 70 μL was transferred to a 96 well plate and pre-incubated at 37° C. for 5 minutes. After pre-incubation, […] 30 μL of NADPH (3.33 mM in potassium phosphate buffer) was added. The reaction mixtures were incubated at 37° C. for 15 and 45 minutes. Reactions without NADPH and buffer controls (minus NADPH) were conducted to rule out non-NADPH metabolism and chemical instability in the incubation buffer. The reactions were quenched with 100 μL ice cold acetonitrile containing an internal standard. The plates were centrifuged at 4000 RPM for 15 minutes and 100 μL aliquots were analyzed for parent compound disappearance by LC-MS/MS. The peak area ratios of analyte versus internal standard were used to calculate the percent remaining at the end of 45 minutes.

[3] = Pharmacokinetic study in mice, intravenous 1 mg/kg; type: in vivo, C57BL/6 mice
Experimental: as §1

[4] = target: 15-PGDH/HPGD (Homo sapiens (Human), UniProt P15428); assay: hPGDH inhibitor screening biochemical assay; settings: read-out: hPGDH: IC50
Outline: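 10 nM recombinant 15-PGDH was preincubated with compound (10-point) for 10 min at 37° C. in 50 mM Tris-HCl pH 7.5, 0.01% Tween 20. Then 15 μM PGE2 and 0.25 mM NAD+ were added for 10 min at rt. NADH fluorescence (ex/em 340/485 nm) gave % inhibition versus 1% DMSO and a four-parameter IC50.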

[5] = Solubility at pH 7.4; type: physicochemical; settings: aqueous buffer, Table 1, 6-5 ring core
[6] = Table 1, PGDH inhibitors with a 6-5 ring core
[7] = Table 2, PGDH inhibitors with a phenyl core

Sequence of 15-PGDH/HPGD (P15428 whole entry): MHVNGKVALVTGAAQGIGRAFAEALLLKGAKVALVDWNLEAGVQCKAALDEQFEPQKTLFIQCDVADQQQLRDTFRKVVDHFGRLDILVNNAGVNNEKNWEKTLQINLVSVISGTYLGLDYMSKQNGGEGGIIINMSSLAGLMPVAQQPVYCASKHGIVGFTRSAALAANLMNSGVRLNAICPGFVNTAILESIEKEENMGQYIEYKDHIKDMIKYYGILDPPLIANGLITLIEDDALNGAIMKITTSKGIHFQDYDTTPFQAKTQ

Structure (SMILES) | % Remaining at 45 Minutes (Mouse Liver Microsomes + NADPH) [2] [%] | AUCinf [3] [ng·h/mL] | AUClast [3] [ng·h/mL] | C0/Cmax [3] [ng/mL] | CL [3] [mL/min/kg] | T1/2 [3] [min] | Vss [3] [L/kg] | pIC50 [4, 6] | further results
O=C(c1cnc2c(ccn2-c2ccc(CO)cc2)c1)N1CCCCC1 [Formula IV] | 71 | – | – | – | – | – | – | – | AUCinf [1]: 106.55 ng·h/mL; AUClast [1]: 105.58 ng·h/mL; C0/Cmax [1]: 985.98 ng/mL; CL [1]: 158.60 mL/min/kg; T1/2 [1]: 7.2 min; Vss [1]: 0.86 L/kg
NC(=O)c1ccc(-n2ccc3cc(C(=O)N4CCC(F)CC4)cnc32)cc1 [Formula IX] | 70 | 156.23 | 156.13 | 749.07 | 106.68 | 12 | 1.52 | – | –
CNC(=O)c1ccc(-n2ccc3cc(C(=O)N4CCCCC4)cnc32)cc1 [Formula VIII] | 80 | 156.49 | 156.43 | 1012.93 | 106.5 | 26.4 | 1.58 | – | –
CNC(=O)c1ccc(-n2ccc3cc(C(=O)N4CCC(F)CC4)cnc32)cc1 [Formula VII] | 88 | 214.11 | 211.95 | 633.31 | 77.84 | 20.4 | 1.56 | – | –
Cc1c(C(=O)N2CCC(F)CC2)cnc2c1ccn2-c1ccc(C(N)=O)cc1 [Formula VI] | 89 | 259.43 | 256.19 | 571.21 | 64.24 | 42 | 2.52 | – | –
CN(C)C(=O)c1ccc(-n2ccc3cc(C(=O)N4CCCCC4)cnc32)cc1 [Formula V] | 86 | 263.35 | 262.46 | 1442.49 | 63.29 | 18 | 0.76 | – | –
NC(=O)c1ncc(-n2ccc3cc(C(=O)N4CCCCC4)cnc32)cn1 [Formula XII] | 81 | 129.4 | 117.19 | 490.48 | 128.8 | 38.4 | 5.16 | – | –
O=C(c1cnc2c(ccn2-c2ccc(O)nc2)c1)N1CCCCC1 [Formula XIV] | 74 | 96.33 | 88.28 | 165.86 | 173.02 | 16.2 | 3.99 | – | –
COCCNC(=O)c1ccc(-n2ccc3cc(C(=O)N4CCC(F)CC4)cnc32)cc1 [Formula XI] | 84 | 131.66 | 130.44 | 663.41 | 126.59 | 9.6 | 1.39 | – | –
COCCNC(=O)c1ccc(-n2ccc3cc(C(=O)N4CCCCC4)cnc32)cc1 [Formula X] | 89 | 147.4 | 146.28 | 1272.79 | 113.07 | 4.2 | 0.58 | – | –
O=C(c1ccc2c(c1)ncn2-c1cccc(Cl)c1)N1CC2CCCC2C1 (centres unmarked) [drawing 102] | – | – | – | – | – | – | – | 7.60 | –
COc1ccc(-n2cnc3cc(C(=O)N4CCC(F)CC4)ccc32)cc1 [drawing 109] | – | – | – | – | – | – | – | 7.36 | –
COc1cc(C(=O)N2CCCCC2)ccc1COc1ccccc1Cl [drawing 115] | – | – | – | – | – | – | – | – | pIC50 [4, 7]: 8.07
COc1ccccc1C(=O)N(C)c1ccc(C(=O)N2CCCCC2)cc1 [drawing 116] | – | – | – | – | – | – | – | – | pIC50 [4, 7]: 5.64
O=C(c1ccc(COc2ccccc2Cl)cc1)N1CCCCC1 [drawing 117] | – | – | – | – | – | – | – | – | pIC50 [4, 7]: 7.73
COc1ccccc1C(=O)Nc1ccc(C(=O)N2CCCCC2)cc1 [drawing 118] | – | – | – | – | – | – | – | – | pIC50 [4, 7]: 7.57
O=C(c1ccc(COc2ccccc2Br)cc1)N1CCCCC1 [drawing 120] | – | – | – | – | – | – | – | – | pIC50 [4, 7]: 8.51

Continued, in another order:

% Remaining at 45 Minutes (Mouse Liver Microsomes + NADPH) [2] [%] | AUCinf [3] [ng·h/mL] | AUClast [3] [ng·h/mL] | C0/Cmax [3] [ng/mL] | CL [3] [mL/min/kg] | T1/2 [3] [min] | Vss [3] [L/kg] | pIC50 [4, 6] | Structure (SMILES) | further results
– | – | – | – | – | – | – | 8.82 | O=C(c1cnc2c(c1)ncn2-c1cccc(Cl)c1)N1CCCCC1 [drawing 103] | solubility [5]: 21 µM (≈ 7.16 µg/mL)
– | – | – | – | – | – | – | 7.97 | O=C(c1ccc2c(c1)c(Cl)cn2-c1cccc(Cl)c1)N1CCCCC1 [drawing 104] | –
– | – | – | – | – | – | – | 7.89 | O=C(c1cnc2c(c1)ncn2-c1cccc(Cl)c1)N1CCCCC1 [drawing 106] | –
– | – | – | – | – | – | – | 7.31 | O=C(c1cnc2c(-c3cccc(Cl)c3)cnn2c1)N1CCCCC1 [drawing 107] | –
– | – | – | – | – | – | – | 8.51 | O=C(c1ccc2c(c1)nnn2-c1cccc(Cl)c1)N1CCCCC1 [drawing 108] | –
– | – | – | – | – | – | – | 8.19 | COc1ccc(-n2cnc3cc(C(=O)N4CCCCC4)ccc32)cc1 [drawing 110] | –
– | – | – | – | – | – | – | 8.24 | O=C(c1ccc2c(cnn2-c2cccc(Cl)c2)c1)N1CCCCC1 [drawing 111] | –
– | – | – | – | – | – | – | 9.30 | O=C(c1ccc2c(ccn2-c2cccc(Cl)c2)c1)N1CCCCC1 [drawing 112] | –

Reference: patent publication US20230390274A1 (EPIRIUM BIO INC., priority 2020, published 2023)
